Reference: patent US20240150293A1, “SPIROCYCLOHEXANE DERIVATIVES, PHARMACEUTICAL COMPOSITIONS CONTAINING THEM AND THEIR USES AS ANTI-APOPTOTIC INHIBITORS” (LES LABORATOIRES SERVIER, priority 2021, published 2024)

What follows are molecules tested against Mcl-1 protein (UniProtKB Q07820) (Homo sapiens (Human), UniProt Q07820) (assay: Inhibition of Mcl-1 by the fluorescence polarisation assay (Example A, Method A)). Details: fluorescence polarization assay.
Type: binding
Method: The relative binding potency of each compound was determined via Fluorescence Polarisation (FP). The method utilised a Fluorescein labelled ligand (Fluorescein-βAla-Ahx-A-REIGAQLRRMADDLNAQY-OH; MW 2,765) which binds to the Mcl-1 protein (such that Mcl-1 corresponds to the UniProtKB® primary accession number: Q07820) leading to an increased anisotropy measured in milli-polarisation (mP) units using a reader. The addition of a compound which binds competitively to the same site as the ligand will result in a greater proportion of unbound ligand in the system indicated by a decrease in mP units.
An 11 point serial dilution of each compound was prepared in DMSO and 2 μl transferred into flat bottomed, low binding, 384-well plate (final DMSO concentration 5%). 38 μl of buffer containing the Fluorescein labelled ligand (final concentration 1 nM) and Mcl-1 protein (final concentration 5 nM) was then added. Buffer components were 10 mM 4-(2-hydroxyethyl)-1-piperazineethanesulfonic acid [HEPES], 150 mM NaCl, pH 7.4 with the addition of 0.05% Tween 20.
Assay plates were incubated for 2 hours at room temperature before FP was measured on a […] Synergy Neo reader ([…], Cut off 510 nm) and mP units calculated. The binding of increasing doses of test compound was expressed as a percentage reduction in mP compared to a window established between ‘5% DMSO only’ and ‘100% inhibition’ controls. 11-point dose response curves were plotted with XL-Fit software using a 4-Parameter Logistic Model (Sigmoidal Dose-Response Model) and the inhibitory concentrations that gave a 50% reduction in mP (IC50) were determined. The Ki values were determined from the IC50 values according to Cer et al, Nucleic Acids Res, 2009, 37 (WebServer issue): W441-W445. Inhibition constants (Ki) are determined from complete binding inhibition curves (cKi) or from estimated from incomplete binding inhibition curves (eKi) in most cases due to low activity.

Mcl-1 protein, sequence (Q07820 whole entry): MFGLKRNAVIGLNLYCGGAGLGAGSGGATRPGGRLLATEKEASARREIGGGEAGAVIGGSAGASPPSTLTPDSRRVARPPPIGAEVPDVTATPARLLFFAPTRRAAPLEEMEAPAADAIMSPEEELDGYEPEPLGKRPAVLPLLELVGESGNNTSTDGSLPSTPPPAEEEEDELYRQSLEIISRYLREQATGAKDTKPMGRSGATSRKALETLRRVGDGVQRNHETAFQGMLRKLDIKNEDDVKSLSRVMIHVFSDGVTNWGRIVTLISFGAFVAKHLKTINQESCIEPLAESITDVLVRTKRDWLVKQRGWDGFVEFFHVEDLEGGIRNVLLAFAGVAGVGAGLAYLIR

| SMILES | Ki [µM] |
| --- | --- |
| O=C(O)[C@]1(Nc2cccc(Cl)c2)CC[C@@]2(CC1)c1ccccc1C[C@@H]2C1CCC1 [Example 101, (1r,2′R,4R)-4-(3-chloroanilino)-2′-cyclobutyl-2′,3′-dihydrospiro[cyclohexane-1,1′-indene]-4-carboxylic acid] | 27 |
| CC1(C)CCc2ncnc(OCCCC3Cc4ccccc4[C@]34CC[C@@](Nc3cccc(Cl)c3)(C(=O)O)CC4)c21 (stereo partly drawn) [Example 466, (1r,4r)-4-(3-chloroanilino)-2′-{3-[(5,5-dimethyl-6,7-dihydro-5H-cyclopenta[d]pyrimidin-4-yl)oxy]propyl}-2′,3′-dihydrospiro[cyclohexane-1,1′-indene]-4-carboxylic acid] | 0.0566 |
| O=C(O)[C@]1(Nc2cccc(Cl)c2)CC[C@]2(CC1)C(c1cccc(Cc3ccccc3)c1)=Cc1ccccc12 [Example 301, (1s,4s)-2′-(3-benzylphenyl)-4-(3-chloroanilino)spiro[cyclohexane-1,1′-indene]-4-carboxylic acid] | 0.491 |
| O=C(NCc1ccccc1)C1=Cc2ccccc2[C@]12CC[C@@](Nc1cccc(Cl)c1)(C(=O)O)CC2 [Example 180, (1s,4s)-2′-(benzylcarbamoyl)-4-(3-chloroanilino)spiro[cyclohexane-1,1′-indene]-4-carboxylic acid] | 12.8 |
| O=C(O)C1(Nc2cccc(Cl)c2)CCC2(CC1)c1ccccc1CC2CCCOc1ncnc2ccsc12 (stereo not drawn) [Example 437, (1r,4r)-4-(3-chloroanilino)-2′-{3-[(thieno[3,2-d]pyrimidin-4-yl)oxy]propyl}-2′,3′-dihydrospiro[cyclohexane-1,1′-indene]-4-carboxylic acid] | 0.0776 |
| O=C(O)[C@]1(Nc2cccc(Cl)c2)CC[C@@]2(CC1)c1ccccc1CC2CCCOc1ccnc2c1CCCC2O (stereo partly drawn) [Example 474, (1r,4r)-4-(3-chloroanilino)-2′-{3-[(8-hydroxy-5,6,7,8-tetrahydroquinolin-4-yl)oxy]propyl}-2′,3′-dihydrospiro[cyclohexane-1,1′-indene]-4-carboxylic acid] | 0.096 |
| O=C(O)[C@]1(Nc2cccc(Cl)c2)CC[C@@]2(CC1)c1ccccc1CC2[C@H]1C[C@@H]1COc1cccnc1 (single isomer, unassigned) [Example 116, (1r,4r)-4-(3-chloroanilino)-2′-[(1R*,2S*)-2-{[(pyridin-3-yl)oxy]methyl}cyclopropyl]-2′,3′-dihydrospiro[cyclohexane-1,1′-indene]-4-carboxylic acid] | 0.882 |
| O=C(O)[C@]1(Nc2ccccc2)CC[C@]2(CC1)C(CCCOc1ccnc3ccsc13)=Cc1ccccc12 [Example 455, (1r,4r)-4-anilino-2′-{3-[(thieno[3,2-b]pyridin-7-yl)oxy]propyl}spiro[cyclohexane-1,1′-indene]-4-carboxylic acid] | 1.03 |
| CN1CCN(CCCC2Cc3ccccc3[C@]23CC[C@@](Nc2cccc(Cl)c2)(C(=O)O)CC3)CC1=O (stereo partly drawn) [Example 198, (1r,4r)-4-(3-chloroanilino)-2′-[3-(4-methyl-3-oxopiperazin-1-yl)propyl]-2′,3′-dihydrospiro[cyclohexane-1,1′-indene]-4-carboxylic acid] | 7.48 |
| C[C@@H](COc1ccnc(C(F)F)c1)C[C@H]1Cc2ccccc2[C@]12CC[C@@](Nc1cccc(Cl)c1)(C(=O)O)CC2 [Example 581, (1r,2′S,4S)-4-(3-chloroanilino)-2′-[(2R)-3-{[2-(difluoromethyl)pyridin-4-yl]oxy}-2-methylpropyl]-2′,3′-dihydrospiro[cyclohexane-1,1′-indene]-4-carboxylic acid] | 0.0475 |
| CC(C)c1cncnc1OCCCC1Cc2ccccc2[C@]12CC[C@@](Nc1cccc(Cl)c1)(C(=O)O)CC2 (mixture of isomers) [Example 461, (1r,4r)-4-(3-chloroanilino)-2′-(3-{[5-(propan-2-yl)pyrimidin-4-yl]oxy}propyl)-2′,3′-dihydrospiro[cyclohexane-1,1′-indene]-4-carboxylic acid] | 0.325 |
| O=C(O)[C@]1(Nc2cccc(Cl)c2)CC[C@@]2(CC1)c1ccccc1CC2Cc1ccccc1 (stereo partly drawn) [Example 169, (1r,4r)-2′-benzyl-4-(3-chloroanilino)-2′,3′-dihydrospiro[cyclohexane-1,1′-indene]-4-carboxylic acid] | 4.77 |
| O=C(O)[C@]1(Nc2cccc(Cl)c2)CC[C@@]2(CC1)c1ccccc1CC2c1cccc2c1OCC2 (single isomer, unassigned) [Example 295, (1r,4r)-4-(3-chloroanilino)-2′-(2,3-dihydro-1-benzofuran-7-yl)-2′,3′-dihydrospiro[cyclohexane-1,1′-indene]-4-carboxylic acid] | 0.643 |

The remaining lines, values ahead:

| Ki [µM] | SMILES |
| --- | --- |
| 4.68 | CCC1=C(C)[C@]2(CC[C@@](Nc3cccc(Cl)c3)(C(=O)O)CC2)c2ccccc21 [Example 206, (1s,4s)-4-(3-chloroanilino)-3′-ethyl-2′-methylspiro[cyclohexane-1,1′-indene]-4-carboxylic acid] |
| 36.3 | CC1=Nc2ccc(Br)cc2[C@]12CC[C@](Nc1cccc(Br)c1)(C(=O)O)CC2 [Example 27, (1r,4r)-5′-bromo-4-(3-bromoanilino)-2′-methylspiro[cyclohexane-1,3′-indole]-4-carboxylic acid] |
| 2.17 | COc1ccc(C2Cc3ccccc3[C@]23CC[C@@](Nc2cccc(Cl)c2)(C(=O)O)CC3)c(C)c1 (single isomer, unassigned) [Example 254, (1r,4r)-4-(3-chloroanilino)-2′-(4-methoxy-2-methylphenyl)-2′,3′-dihydrospiro[cyclohexane-1,1′-indene]-4-carboxylic acid] |
| 4.1 | COc1cccc(N[C@]2(C(=O)O)CC[C@@]3(CC2)C(Br)=Cc2ccccc23)c1 [Example 86, (1s,4s)-2′-bromo-4-(3-methoxyanilino)spiro[cyclohexane-1,1′-indene]-4-carboxylic acid] |
| 40.1 | CC1=C(C)[C@]2(CC[C@@](Nc3cccc(Br)c3)(C(=O)O)CC2)c2ccccc21 [Example 203, (1s,4s)-4-(3-bromoanilino)-2′,3′-dimethylspiro[cyclohexane-1,1′-indene]-4-carboxylic acid] |
| 36.7 | CC1(C)[C@H]2C=C(C3=Cc4ccccc4[C@]34CC[C@@](Nc3cccc(Cl)c3)(C(=O)O)CC4)[C@]1(C)CC2 [Example 276, (1s,4S)-4-(3-chloroanilino)-2′-[(1R,4R)-1,7,7-trimethylbicyclo[2.2.1]hept-2-en-2-yl]spiro[cyclohexane-1,1′-indene]-4-carboxylic acid] |
| 0.104 | Cc1cncnc1OCCCC1=Cc2ccccc2[C@]12CC[C@@](Nc1cccc(Br)c1)(C(=O)O)CC2 [Example 456, (1r,4r)-4-(3-bromoanilino)-2′-{3-[(5-methylpyrimidin-4-yl)oxy]propyl}spiro[cyclohexane-1,1′-indene]-4-carboxylic acid] |
| 2.26 | O=C(O)C1(Nc2cccc(Br)c2)CCC2(CC1)c1ccccc1CC2c1ccc(Cl)cc1 (stereo not drawn) [Example 222, 4-(3-bromoanilino)-2′-(4-chlorophenyl)-2′,3′-dihydrospiro[cyclohexane-1,1′-indene]-4-carboxylic acid] |
| 0.141 | O=C(O)[C@]1(Nc2cccc(Br)c2)CC[C@]2(CC1)C(CCCOc1ccnc3ccsc13)=Cc1ccccc12 [Example 454, (1r,4r)-4-(3-bromoanilino)-2′-{3-[(thieno[3,2-b]pyridin-7-yl)oxy]propyl}spiro[cyclohexane-1,1′-indene]-4-carboxylic acid] |
| 44 | O=C(O)C1(Nc2cccc(Br)c2)CCC2(CC1)C(c1ccc(Cl)c(Cl)c1)=Cc1ccccc12 (single isomer, unassigned) [Example 233, 4-(3-bromoanilino)-2′-(3,4-dichlorophenyl)spiro[cyclohexane-1,1′-indene]-4-carboxylic acid] |
| 23.7 | COc1ccc(C2=Cc3ccccc3[C@]23CC[C@](Nc2cccc(Cl)c2)(C(=O)O)CC3)cc1Cl [Example 226, (1r,4r)-4-(3-chloroanilino)-2′-(3-chloro-4-methoxyphenyl)spiro[cyclohexane-1,1′-indene]-4-carboxylic acid] |
| 36.3 | COc1cccc(N2Cc3ccccc3[C@]23CC[C@](Nc2cccc(Br)c2)(C(=O)O)CC3)c1 [Example 31, (1r,4r)-4-(3-bromoanilino)-2′-(3-methoxyphenyl)-2′,3′-dihydrospiro[cyclohexane-1,1′-isoindole]-4-carboxylic acid] |
| 0.531 | Cc1cnccc1OCCCOC1=Cc2ccccc2[C@]12CC[C@@](Nc1cccc(Br)c1)(C(=O)O)CC2 [Example 193, (1s,4s)-4-(3-bromoanilino)-2′-{3-[(3-methylpyridin-4-yl)oxy]propoxy}spiro[cyclohexane-1,1′-indene]-4-carboxylic acid] |
| 1.69 | COc1ccc(C2=Cc3ccccc3[C@]23CC[C@@](Nc2cccc(Cl)c2)(C(=O)O)CC3)c(Cl)c1 [Example 251, (1s,4s)-4-(3-chloroanilino)-2′-(2-chloro-4-methoxyphenyl)spiro[cyclohexane-1,1′-indene]-4-carboxylic acid] |
